# Test results published in patent US20080276732A1, “INDICATOR FOR ORALLY ADMINISTERED COMPOSITIONS” (MULTI FORMULATIONS LTD., priority 2007, published 2008).
# Values joined by “and” are separate entries in the source; they are usually repeats but may differ in a detail not shown here. Equal entries are not always repeated. “Also recorded” adds a separate entry of the source. Where two headings read alike, the source gives them in different places.
# Tests used:
# subjects [1] = experiment: Testing the efficacy of Picamilon in capsule form: perceived sensory effects after oral administration; assay type: in vivo, human; details: single 100 mg oral dose of Picamilon
# Procedure: In order to test the ability of orally administered Picamilon to induce a sensory effect a test was conducted. Six subjects were given a capsule containing Picamilon and asked to report on any perceived sensory effects. Each capsule contained 100 mg of Picamilon and filled to 150 mg with lactose as a filler-binder.
# individuals = details: Niacin at pharmacologically active doses; Benyo et al. 2005; cited from earlier work
# subjects [2] = details: single 30 mg oral dose of Niacin
# Procedure: In order to test the ability of orally administered Niacin to induce a sensory effect a test was conducted. Five subjects were given a capsule containing Niacin and asked to report on any perceived sensory effects. Each capsule contained 30 mg of Niacin and filled to 150 mg with lactose as a filler-binder. Subjects were informed of the capsule contents and of possible effects. Subjects were asked to report any sensory effects felt, the time to onset and the duration of any effects.
# subjects [3] = experiment: Testing the efficacy of Yohimbine in capsule form: perceived sensory effects after oral administration; assay type: in vivo, human
# Procedure: In order to test the ability of orally administered Yohimbine to induce a sensory effect a test was conducted. Four subjects were given a capsule containing Yohimbine and asked to report on any perceived sensory effects. Each capsule contained 5 mg of Yohimbine and filled to 150 mg with lactose as a filler-binder.
# [4] = per subject, subject 1 separately for warmth and tingling
# [5] = single 5 mg oral dose of Yohimbine, per subject
structure (smiles),measurement,setting,value
"O=C(O)CCCNC(=O)c1cccnc1 [Picamilon, N-nicotinoyl-gamma-aminobutyric acid]",Sensory Effect(s),"subjects [1]; capsule, one line per subject (1-6)",tingling; also recorded: relaxation; also recorded: warmth - body
same,Duration,subjects [1]; per subject,1.5 h
same,Duration,subjects [1]; [4],15-20 min and 45 min and 5 min (warmth) and 15 min
same,Time to Onset,subjects [1]; [4],15 min and 15-20 min (2×) and 10 min (warmth) and 30 min
same,subjects who reported noticeable effects,subjects [1]; six subjects,four of the six
"O=C(O)c1cccnc1 [Niacin, nicotinic acid]",duration of the flushing effect,individuals,about 1 hr
same,Duration,"subjects [2]; capsule, one line per subject",45 min (2×) and 15 min
same,Time to Onset,"subjects [2]; capsule, one line per subject",10 to 15 min and 20 min and 15 min
same,subjects who experienced transient sensory effects,subjects [2]; five subjects,three of the five
same,time until the individual perceives a sensory effect (summary),subjects [2]; summary of Table 1,≤ 15 min
COC(=O)[C@@H]1[C@H]2C[C@H]3c4[nH]c5ccccc5c4CCN3C[C@@H]2CC[C@@H]1O [Yohimbine],onset time and duration of perceived sensory effects on average compared with Niacin and Picamilon,"subjects [3]; 5 mg Yohimbine, oral",longer onset time and longer duration
same,subjects who reported noticeable effects,"subjects [3]; single 5 mg oral dose of Yohimbine, four subjects",three of the four
same,Duration,subjects [3]; [5],10 to 15 min and 60 min and 120 min
same,Time to Onset,subjects [3]; [5],1 h and 0.5 h and 0.25 h
